In ChEMBL document CHEMBL1149462, “Total synthesis and biological evaluation of 22-hydroxyacuminatine” (J Med Chem, 2006):

How the values were obtained:
P388CPT45 = test: Cytotoxicity against topoisomerase 1-deficient subclone P388/CPT45 murine leukemic cell line; type: functional, cell-based; conditions: Mus musculus
P388 = test: Cytotoxicity against P388 murine leukemic cell line; type: functional, cell-based; conditions: Mus musculus

Compound: O=c1c2cccc(CO)c2cc2n1Cc1cc3ccccc3nc1-2
- IC50 (P388CPT45): 43 µM
- IC50 (P388): 35.5 µM
